Source: patent US20070196272A1, “ORAL DELIVERY OF THERAPEUTIC AGENTS USING TIGHT JUNCTION AGONISTS” (priority 2006, published 2007)
Where two headings read alike, the source gives them in different places.

Legend:
PAR-2 = target: T1, PAR-2 (Mus musculus, UniProt P55086); conditions: intracolonic infusion, 5 μg dose; cited from earlier work
T1 construct: Intracolonic infusion of a 5 μg dose of the PAR-2 agonist, SLIGRL; host or cells: colon in vivo (endogenous receptor)
T1 sequence (P55086 26-399): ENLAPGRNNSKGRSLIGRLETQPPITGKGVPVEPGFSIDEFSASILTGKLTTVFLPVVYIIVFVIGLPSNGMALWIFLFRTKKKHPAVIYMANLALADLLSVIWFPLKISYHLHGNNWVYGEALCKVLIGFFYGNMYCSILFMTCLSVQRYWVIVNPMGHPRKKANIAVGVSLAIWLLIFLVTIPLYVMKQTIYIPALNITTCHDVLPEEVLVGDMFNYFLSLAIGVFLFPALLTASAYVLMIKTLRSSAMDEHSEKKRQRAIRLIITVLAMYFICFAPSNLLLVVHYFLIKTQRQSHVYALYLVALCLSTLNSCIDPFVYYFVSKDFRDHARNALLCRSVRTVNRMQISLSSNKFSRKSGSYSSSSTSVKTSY

[1] = as seen with CsA after metabolic protection; cited from earlier work
[2] = ZOT 4.4×10^−10 mol/kg; cited from earlier work
Caco-2 cell monolayers [3] = conditions: ZOT 0.22 to 0.89×10^−10 mol/ml; as seen with paclitaxel; cited from earlier work
in vitro = conditions: human, Caco-2
Procedure: (§1) Caco-2 cells, a human colon adenocarcinoma cell line, were grown as monolayers for 21 days in Dulbecco's Modified Eagle's medium (1×) containing 10% fetal bovine serum, 1% non-essential amino acid solution, 1% penicillin-streptomycin and 2% glutamine at 37° C. in an atmosphere of 5% CO2 and 90% relative humidity. Caco-2 cells from passage numbers of 51 to 52 were seeded on permeable polycarbonate inserts (1 cm^2, 0.4 μm pore size) in 12 Transwell plates at a density of 80,000 cells/cm^2. The inserts were fed with media every other day until they were used for experiments 21 days after the initial seeding. The integrity of the cell monolayers was evaluated by measuring the transepithelial electrical resistance (TEER) values before the study using a Millicell®-ERS meter (Millipore Corp., Bedford, Mass.) with chopstick electrodes. […] The cell monolayers were washed twice with PBS prior to the transport experiments. After the wash, the plates were incubated for 30 min at 37° C., and the integrity of the cell monolayers was evaluated by measurement of TEER. The cell inserts were used in transport experiments when the TEER values reached >300 Ωcm^2.
(§2) The insert was moved to a well containing fresh PBS every 10 min for 40 min.
(§3) Papp was calculated according to the following equation: [formula] […]
(§4) The percent enhancement ratio, ER (%), for the Papp was calculated from the formula, [formula] […]

[4] = PI, BC 0.05% w/v, ID, not statistically enhanced
[5] = for intestinal transport of [^3H]-cyclosporin A, enhancement: AT-1002 40 mg/kg with PI and BC 0.1% w/v, ID
Excerpt: Male Sprague-Dawley rats (230-280 g) were purchased from Harlan Laboratories (Indianapolis, Ind.). Rats were housed individually in cages and allowed to acclimate at least two days after arrival. Rats were fed Rat Chow and water ad libitum and maintained on a 12-h light: 12-h dark cycle. The protocol for the animal studies was approved by the School of Pharmacy, University of Maryland IACUC.
Male Sprague-Dawley rats were fasted overnight prior to and during the study with free access to water. Prior to the administration of AT1002, the rats were anesthetized with an intra-peritoneal injection of ketamine (80 mg/kg) and xylazine (12 mg/kg), and the duodenum and jugular vein were cannulated. […] Blood samples (250 μl) were drawn via the jugular cannula into heparinized syringes at 0 (actual time point was −5 min before the administration), 20, 60, and 120 min into polypropylene tubes, centrifuged (13,000 rpm for 10 min) immediately and plasma was obtained. Scintillation cocktail was added and samples were analyzed for radioactivity by Beckman Coulter LS 6500 multi-purpose Scintillation counter.
The area under the plasma concentration-time curve (AUC0-t) was calculated using the linear trapezoidal rule. The highest observable concentration was defined as maximum concentration (Cmax). The percent enhancement ratio, ER (%), for the pharmacokinetic parameters was calculated from the formula, [formula]
[^3H]-cyclosporin (120 μCi/kg) was co-administered with AT-1002 (40 mg/kg), protease inhibitors (i.e. bestatine (30 mg/kg) and E-64 (10 mg/kg)) and benzalkonium chloride (0.1% w/v) to rats (n=5 per group) via the intra-duodenal administration.

[6] = AT-1002 10, 20 and 40 mg/kg, PI, BC 0.05% w/v, ID
Procedure: The effect of AT-1002 on the transport of [^14C]-innulin across the intestine was examined in mice. [^14C]-innulin (30 μCi/kg) was co-administered with AT-1002 (10, 20 and 40 mg/kg), protease inhibitors (i.e. bestatine (30 mg/kg) and E-64 (10 mg/kg)) and benzalkonium chloride (0.05% w/v) to rats (n=4-5 per group) via the intra-duodenal administration.

[7] = tested on: intercellular tight junctions; test: Ussing chamber model
Excerpt: Our recent observation that zonulin may represent a new member of the serine protease family whose target receptor seems to be a variant of the protease activated receptor (PAR)2, lead us to the observation that the first six amino acids following V. cholerae-mediated ZOT cleavage (AA 289-295 [FCIGRL]) closely resembles the active motif of PAR2 (SLIGRL). Therefore, the six-mer synthetic peptide FCIGRL (that we named AT1002) was generated.

[8] = AT-1002 10 mg/kg with bestatine 30 mg/kg and E-64 10 mg/kg, oral, each sampling time
Procedure: The ability of AT-1002 on the transport of [^14C]-mannitol across the intestinal membrane was examined in mice. [^14C]-mannitol (30 μCi/kg) was co-administered with AT-1002 (10 mg/kg) and protease inhibitors (i.e. bestatine (30 mg/kg) and E-64 (10 mg/kg)) to mice (n=3 per group) via the oral administration.

Caco-2 cell monolayers [9] = conditions: AT1002 5 mM
Procedure: as §1, §2, §3, §4

## SLIGRL
PAR-2
  increase in the paracellular permeability of [^51C]-EDTA: 2 fold

## ΔG: 12 kDa fragment (AA 265-399) of ZOT, biologically active fragment
[1]
  increase in AUC: ≤ 50 fold
  increase in Cmax: up to 57 fold

## ZOT: 44.8 kDa protein (399 amino acids) of Vibrio cholerae that reversibly opens tight junctions
[2]
  bioavailability of oral insulin / serum glucose lowering: sufficient to lower serum glucose concentrations to levels comparable to those obtained after parenteral injection
Caco-2 cell monolayers [3]
  transport enhancement across Caco-2 cell monolayers: up to 30 fold

## OC[C@@H](O)[C@@H](O)[C@H](O)[C@H](O)CO [Mannitol]
In vitro
  Papp at 0.5 μCi/ml: 0.686 ± 0.057 ×10⁻⁶ cm/s

## H-FCIGRL-OH [AT1002, H—FCIGRL-OH]
[4]; AT-1002 10 mg/kg
  intestinal membrane transport of [^14C]-mannitol, increase: 1.43 fold
[4]; AT-1002 20 mg/kg
  intestinal membrane transport of [^14C]-mannitol, increase: 1.24 fold
[4]; AT-1002 30 mg/kg
  intestinal membrane transport of [^14C]-mannitol, increase: 1.81 fold
[5]; 20 min
  intestinal transport of [^3H]-cyclosporin A, enhancement: 1.78 fold
[5]; 60 min
  intestinal transport of [^3H]-cyclosporin A, enhancement: 1.55 fold
[5]; each time point
  change in plasma concentration of CsA between 10 mg/kg and 40 mg/kg of AT1002: No statistically significant change
[5]; in the presence of PI
  in vivo oral absorption of CsA: significantly increased
[6]
  intestinal membrane transport of [^14C]-innulin: not enhanced
[7]
  permeating effect on intercellular tight junctions: retained the ZOT permeating effect
[8]
  intestinal membrane transport of marker: not enhanced
Caco-2 cell monolayers [9]
  CsA transport across Caco-2 cell monolayers, significance vs control: No significant increases
